Reference: patent US20250145715A1, “B7-H3 TARGETING FUSION PROTEINS AND METHODS OF USE THEREOF” (GT Biopharma, Inc., priority 2021, published 2025)
Entries after “also recorded” stand apart in the source; their conditions may differ.

Tests used:
OVCAR8 cells = test: IncuCyte real-time tumor-killing assay, OVCAR8; type: cell-based, human; settings: enriched NK cells, E:T 2:1, 30 nM, 48 h; vs controls
Description: Healthy donor or ovarian cancer PBMC cells were incubated with ovarian tumor targets at 2:1 E:T ratio for 4 hrs with 30 nM TriKE or control condition. FIG. 30A is a graph illustrating pooled proportion of NK cells from healthy donors expressing CD107a+ (degranulation) against OVCAR8 targets (N=8). FIG. 30B is a graph illustrating pooled proportion of NK cells from healthy donors expressing IFNγ cytokine production against OVCAR8 targets (N=8). FIG. 30C is a graph illustrating pooled proportion of NK cells from healthy donors expressing CD107a+ (degranulation) against OVCAR3 targets (N=4). […] FIG. 30I is a graph illustrating that tumor killing was evaluated using IncuCyte imaging assay. […] The percentage of Live (Nuclight Red+Caspase 3/7−) tumor cells was quantified over a 48-h period and normalized to tumor alone. Readings were obtained every 15 min (representative of four separate experiments). * p<0.05, ** p<0.01, *** p<0.001, and **** p<0.0001.
Tumor killing was evaluated in real-time using the IncuCyte platform. […] Caspase-3/7 green dye (Sartorious, Ann Arbor, MI, USA) was added to pick up dying cells that have not yet lost NuclightRed fluorescence. […] Images from three technical replicates were taken every 15 min for 48 h using a 4× objective lens and then analyzed using IncuCyte™ Basic Software v2018A (Sartorious). […]

T cells (CD56−CD3+) = test: T cell proliferation in PBMCs, CellTrace Violet dilution; type: cell-based, human; settings: 7 days
Description: FIGS. 2A-2H illustrates that cam1615B7-H3 TriKE induces potent, and specific, natural killer (NK) cell proliferation. Peripheral blood mononuclear cells (PBMCs) were CellTrace Violet labeled and incubated for seven days at 5 nM equimolar concentrations of rhIL-15 or cam1615B7-H3 TriKE. On day 7, the cells were harvested and stained for flow cytometric evaluation. […] FIG. 2B is a graph illustrating pooled data showing the overall proportion of NK cells that proliferated. FIG. 2C is a graph illustrating pooled data showing the proportion of NK cells that highly proliferated (measured as proliferation beyond three divisions). FIG. 2D is a graph illustrating pooled data showing NK cell counts in the cultures (N=9). FIG. 2E is a representative histogram showing T cell (CD56− CD3+) proliferation. FIG. 2F is a graph illustrating pooled data showing the overall proportion of T cells proliferated. FIG. 2G is a graph illustrating pooled data showing the proportion of T cells highly proliferated. FIG. 2H is a graph illustrating pooled data showing T cell counts in the cultures (N=9). * p<0.05, ** p<0.01, *** p<0.001.
The wild-type IL-15 moiety in the cam1615B7-H3 TriKE was designed to induce targeted delivery of a proliferative signal to NK cells. To test this, proliferation assays evaluating dilution of a CellTrace dye over a 7-day period were carried out on PBMCs treated with no treatment (NT), monomeric rhIL-15 (IL15), or the TriKE (cam1615B7-H3). At the end of the seven days, cells were harvested and proliferation was evaluated by gating on CD56+CD3− cells. […] Since IL-15 acts on both NK cells and T cells, specificity was evaluated next by gating on T cells (CD56-CD3+).
To measure the ability of the TriKE to specifically induce NK cell expansion via the IL-15 moiety, PBMCs from healthy donors were labeled with CellTrace Violet Proliferation Dye (Invitrogen, Carlsbad, CA, USA) according to kit specifications. After staining, cells were cultured with TriKEs at noted concentrations, or equimolar concentrations of controls, and incubated in a humidified atmosphere containing 5% CO2 at 37° C. for seven days. Cells were harvested, stained for viability with Live/Dead reagent (Invitrogen, Carlsbad, CA, USA) and surface stained for anti-CD56 PE/Cy7 (Biolegend, San Diego, CA, USA) and anti-CD3 PE-CF594 (BD Biosciences, Franklin Lakes, NJ, USA) to gate on the viable CD56+ CD3− NK cell population or the CD56-CD3+ T cell population. Data analysis was performed using FlowJo software (FlowJo LCC, version 7.6.5, Ashland, OR, USA).

cam1615B7-H3: second-generation TriKE: humanized camelid anti-CD16 VHH, human wild-type IL-15, anti-B7-H3 mAb 376.96 scFv; SEQ ID NO:1
killing of OVCAR8 tumor cells over two days (OVCAR8 cells): robust and rapid tumor killing | overall T cell proliferation (T cells (CD56−CD3+); 5 nM equimolar, listed as cam1615B7-H3 TriKE): Minimal T cell proliferation; also recorded: some induction of overall T cell proliferation | T cell numbers in culture (T cells (CD56−CD3+); 5 nM, vs untreated): did not differ between the untreated and TriKE-treated groups | T cells robustly proliferating (past three divisions) (T cells (CD56−CD3+); 5 nM, vs untreated): significantly less proliferation than the untreated group
